In US20120071539A1, “COMPOUNDS AND METHODS FOR MODULATING THE SILENCING OF A POLYNUCLEOTIDE OF INTEREST” (Emory University, priority 2006, published 2012):
Counter-ions that a name gives are not always drawn.

What was measured:
EGFP, 293-EGFP cells = test: plate-reader chemical library screen, GFP signal in control EGFP cells; format: cell-based, human; conditions: for EGFP, 293-EGFP cells With RNAi-E / EGFP, 293-EGFP cells Drug alone: GFP signal
Method: (§1) The presently disclosed chemical library also was screened using a plate reader to quantify the GFP signal intensity. The following screens were conducted: (1) repeating chemical screen using plate reader to quantify the GFP signal (50 mM each drug); (2) treating cells with 50 mM RNAi-I (30 mM each additional drug); and treating cells with […] (30 mM each additional drug).
(§2) For each screen, two types of cells were used: Clone#3 and EGFP. Clone#3 cells are 293-EGFP-siGFP and could be used to identify the modulators of the RNAi pathway. EGFP cells are 293-EGFP only and were used as a control to eliminate the compounds that could kill the cells or interfere GFP signals that are not related to RNAi pathway. The results for each screen are summarized in Table 2 and Table 3, respectively.
(§3) In these three screens, compounds were identified that could either enhance or inhibit RNAi activity in Clone#3, but had no effect on EGFP cells, which would indicate that these compounds might specifically work on RNAi pathway. The modulation of RNAi activity by these compounds was calculated as the percentage of GFP signal to Clone#3 control cells.

[1] = tested on: Clone#3, 293-EGFP-siGFP cells; test: plate-reader chemical library screen, GFP signal in Clone#3 cells; format: cell-based, human; conditions: for Clone#3, 293-EGFP-siGFP cells GFP signal intensity with Drug alone: plate reader
Excerpt: Further, in some embodiments, additional screens using the same library can be performed to identify other modulators of the siRNA and the miRNA pathways. In some embodiments, instead of examining the GFP signal visually under a microscope, the GFP signal can be quantified using an automatic plate reader. In such embodiments, two additional rounds of screening can be performed. In the first round of screening, the clones can be treated with compounds from a library, e.g., The Spectrum Collection, alone and the GFP level can be quantified after a period of time, e.g., 48 hours. In the second round of screening, the clones can be treated with compounds from a library, e.g., The Spectrum Collection, in the presence of 50 μM RNAi-E, i.e., enoxacin. This assay enables compounds that can modulate the activity of RNAi-E to be identified.
as §1, §2, §3

[2] = tested on: siRNA-mediated mRNA degradation; test: cell-based reporter screen: human 293 cells stably expressing GFP plus siRNA hairpin against GFP; conditions: for Modulation Effect (inhibit or enhance siRNA-mediated mRNA degradation): Table 1
Method: FIG. 2 discloses one embodiment of the cell-based reporter system of the invention. In this example, a human 293-cell line stably expressing a reporter gene, GFP, was used. This cell line was further transfected with a construct that expresses siRNA hairpin against GFP, which can decrease the level of GFP expression. Individual clones were isolated with greatly (although not completely) reduced GFP expression.
Using the above-identified clones, a screen was performed using The Spectrum Collection (MicroSource Discovery Systems, Inc., Gaylordsville, Conn., United States of America), which contains 2000 biologically active and structurally diverse compounds from libraries of known drugs, experimental bioactives, and pure natural products. For example, in one embodiment, a pilot screen of this library identified one inhibitor and one enhancer of siRNA-mediated mRNA degradation.
To identify the chemical compounds that modulate the siRNA and miRNA pathway, a screening strategy was used. A human 293-cell line stably expressing a reporter gene, GFP, was used. This cell line was further transfected with a construct that expresses siRNA hairpin against GFP, which could knock down the expression of GFP. […] Using these clones, a screen was performed using The Spectrum Collection, which contains 2000 biologically active and structurally diverse compounds from libraries of known drugs, experimental bioactives, and pure natural products.
Human 293 cells stably expressing a reporter gene, GFP, were further transfected with a construct that expresses an siRNA hairpin against GFP, which results in the knock-down of the expression of GFP. Transfected cells containing the siRNA suppressed GPF expression were split and then treated with an effective amount of enoxacin (FIG. 4, second panel) and were grown for a period of 24-48 hours.

tumor cell models = conditions: cited from earlier work
[3] = tested on: shRNA against Luciferase mRNA; test: GL-3 luciferase reporter in cells expressing shRNA against luciferase; format: cell-based; conditions: FIG. 5
Excerpt: In this example, a luciferase reporter construct GL-3 was transfected into the cells expressing shRNA against Luciferase mRNA.

[4] = 50 mM RNAi-E, 30 mM each additional drug
[5] = 50 mM RNAi-E, 30 mM each additional drug, values given as decimals
[6] = 50 mM each drug, values given as decimals

Row | SMILES | EGFP, 293-EGFP cells With RNAi-E (EGFP, 293-EGFP cells; [4]) | EGFP, 293-EGFP cells Drug alone (EGFP, 293-EGFP cells; 50 mM each drug) | Clone#3, 293-EGFP-siGFP cells GFP signal intensity with Drug and RNAi-E [1, 4] | Clone#3, 293-EGFP-siGFP cells GFP signal intensity with Drug alone ([1]; 50 mM each drug) | Effect ([1]; Table 2) | Effect ([1]; as listed in Table 3) | Modulation Effect (inhibit or enhance siRNA-mediated mRNA degradation) [2] | other results
1 | C=C1C2CCC3(C)C(c4ccoc4)OC(=O)CC13OC1CC(O)C(C)(C)C(CC(=O)OC)C12C (stereo not drawn) [3-alpha-hydroxy-3-deoxyangolensic acid methyl ester] | 118263232 | 129330172 | 10902446 | 10997867 | Enhancer | Enhancer | Enhancer | –
2 | CC(=O)O[C@@H]1C[C@H]2C(C)(C)[C@@H](O)CC[C@]2(C)[C@H]2CC[C@]3(C)C(=CC(=O)O[C@H]3c3ccoc3)[C@@]21C [3-beta-Hyroxydeoxo-dihydrodeoxygedunin, 3-beta-hydroxydeoxodihydrodeoxygedunin] | 186574276 | 213530556 | 13998738 | 17430963 | Enhancer | Enhancer | Enhancer | –
3 | NC(=S)NN=Cc1ccc(O)cn1 [5-HP, 5-hydroxypyridine-2-carboxaldehyde thiosemicarbazone] | – | – | – | – | – | – | – | anti-proliferative activity (tumor cell models): anti-proliferative activity
4 | CC(C)C[C@H]1C(=O)N2CCC[C@H]2[C@]2(O)O[C@](NC(=O)[C@@H]3C=C4c5cccc6[nH]c(Br)c(c56)C[C@H]4N(C)C3)(C(C)C)C(=O)N12 [Bromocriptine Mesylate] | 136409552 | 132392840 | 10893798 | 7607590 | – | – | – | –
5 | C=C[C@@]1(C)CC(=O)[C@]2(O)[C@@]3(C)[C@@H](O)CCC(C)(C)[C@@H]3[C@H](O)[C@H](OC(C)=O)[C@@]2(C)O1 [Colforsin] | – | – | – | – | Inhibitor | Inhibitor | Inhibitor | –
6 | CC(=O)N(O)CCCCCNC(=O)CCC(=O)N(O)CCCCCNC(=O)CCC(=O)N(O)CCCCCN [Deferoxamine Mesylate] | 194519648 | 194929488 | 12987131 | 15874023.8 | – | – | – | –
7 | Cc1cc(=O)c2c(O)c3c(cc2o1)OCC(C)CC3 (stereo not drawn) [Dihydroptaeroxylin] | 194786588 | 215783848 | 17140237.8 | 26383349 | Enhancer | Enhancer | Enhancer | EGFP, 293-EGFP cells Control % (With RNAi-E) (EGFP, 293-EGFP cells; [5]): 95.4836%; EGFP, 293-EGFP cells Control % (Drug alone) (EGFP, 293-EGFP cells; [6]): 105.776%; Clone#3, 293-EGFP-siGFP cells % GFP signal intensity with drug + RNAi-E/Control (no drug) [1, 5]: 59.4446%; Clone#3 293-EGFP-siGFP cells % GFP signal intensity with drug alone/Control (no drug) [1, 6]: 91.5009%
8 | O=C(O)CCC(=O)c1ccc(-c2ccccc2)cc1 [Fenbufen] | 191729340 | 204633204 | 17801864.5 | 26499027 | Enhancer | Enhancer | Enhancer | –
9 | CC(=O)O[C@H]1C[C@@]2(C)[C@@H](C[C@@H](O)[C@H]3[C@@]4(C)CC[C@@H](O)[C@@H](C)[C@@H]4CC[C@@]32C)/C1=C(\CCC=C(C)C)C(=O)O [Fusidic Acid] | 192354884 | 229560272 | 18581363.5 | 27803206.5 | Enhancer | Enhancer | Enhancer | –
10 | O=C1CC[C@]23/C=C/C(=O)NCCCCNCCCNC(=O)/C=C/c4ccc(c2c4)O[C@@H]3C1 [Lunarine] | 130354040 | 131010562 | 11171512 | 9353700 | Enhancer | Enhancer | Enhancer | –
11 | COc1cc2c(cc1OC)C(=O)OC2 [Metameconine] | – | – | – | – | Inhibitor | Inhibitor | Inhibitor | –
12 | O=C(NCCN(CCNC(=O)c1cc(S(=O)(=O)O)c2cccnc2c1O)CCNC(=O)c1cc(S(=O)(=O)O)c2cccnc2c1O)c1cc(S(=O)(=O)O)c2cccnc2c1O [OTX, O-trensox] | – | – | – | – | – | – | – | anti-proliferative activity (tumor cell models): anti-proliferative activity
13 | Cc1ncc(CO)c(C=NNC(=O)c2ccncc2)c1O [P1H, pyridoxal isonicotinoyl hydrazone] | – | – | – | – | – | – | – | anti-proliferative activity (tumor cell models): anti-proliferative activity
14 | Nc1nc2[nH]cnc2c(=S)[nH]1 [Thioguanine] | 193528220 | 181033260 | 9228044.75 | 11903224.8 | Enhancer | Enhancer | Enhancer | –
15 | NC(=S)NN=Cc1ncccc1N [Triapine, 3-aminopyridine-2-carboxaldehyde thiosemicarbazone] | – | – | – | – | – | – | – | activity against tumor cell models (tumor cell models): has activity against a variety of tumor cell models; anti-proliferative activity (tumor cell models): anti-proliferative activity
16 | Cc1ccc(/C(=C\CN2CCCC2)c2ccccn2)cc1 [Triprolidine Hydrochloride] | 202110668 | 202102776 | 19639902.5 | 26791778.5 | – | – | – | –
17 | O=C(O)c1cn(C2CC2)c2cc(N3CCNCC3)c(F)cc2c1=O [ciprofloxacin] | – | – | – | – | – | – | – | knock-down efficiency of shRNA against luciferase mRNA [3]: increased the knock-down efficiency; siRNA-mediated mRNA degradation [3]: enhance siRNA-mediated mRNA degradation
18 | CC(=O)N(O)CCCCCNC(=O)CCC(=O)N(O)CCCCCNC(=O)CCC(=O)N(O)CCCCCN [desferrioxamine] | – | – | – | – | – | – | – | anti-proliferative activity (tumor cell models): anti-proliferative activity; sensitivity of aggressive tumors to Fe chelation therapy (tumor cell models; neuroblastoma (NB) and leukemia, in vitro, in vivo and clinical trials): sensitive
19 | COc1cc(C(=O)NCc2ccc(OCCN(C)C)cc2)cc(OC)c1OC [trimethobenzamide] | – | – | – | – | – | – | – | siRNA-mediated mRNA degradation and gene knock-down ([2]; pilot screen of The Spectrum Collection, FIG. 3, FIG. 4): inhibit siRNA-mediated mRNA degradation and gene knock-down
